# Measured values from patent US9737510B2, “Indazole compounds and a process for the preparation thereof” (Council of Scientific & Industrial Research, priority 2013, dated 2017).
# How the values were obtained:
# [1] = tested on: MIN6 cells; assay: Insulinotropic activity: insulin secretion from MIN6 cells (ELISA based assay); type: cell-based, mouse; details: for Insulin Secretion: standard error in bracket
# Protocol: Insulinotropic activity of the NDS100178 and NDS100179 was measured by a well-optimized ELISA based Assay (Shantani Protocol #5205) described below.
# Materials • MIN6Cell (source: National Center for Cell Sciences, Pune) • Mouse Insulin ELISA kit (Mercodia, 10-1247-01) • Plate Shaker (MixMatefromEppendorf) • HEPES Balanced Krebs-Ringer bicarbonate buffer (components as follows)
# Method • i. Seed proliferating culture of MIN-6 cells into a 6 well plate with almost half the confluency two days before the experiment. • ii. One the day of Insulin induction experiment, the cells should become almost confluent and are in good condition. • iii. On the day of experiment, first prepare 1×KRB-HEPES buffer with 0.1% BSA (for rinse) and without BSA (for equilibration and insulin induction) as described in the materials. • iv. Prepare equilibration buffer: 1×KRB-HEPES buffer without BSA containing 3.3 mM glucose (to bring down the glucose level of all cells to the same level). For example, add 66 ul 1 M glucose stock solution to 20 ml KRB-HEPES buffer without BSA. • v. Prepare the stimulating buffer (insulin induction): 1×KRB-HEPES buffer without BSA containing the defined glucose level (in most cases, it will be 16.7 mM glucose) and the desired concentration of molecule. • vi. Pre warm all the buffers to 37° C. in the water bath (at 15 minutes). • vii. Remove media from all wells, rinse each well twice with 2 ml KRB-HEPES buffer containing 0.1% BSA. • viii. Add 2 ml of equilibration buffer in each well and incubate at 37° C. for half an hour. • ix. After the incubation add 2 ml of stimulating buffer in respective wells (properly labelled) and incubate 37° C. for 1 hour. • x. In the meanwhile, turn on the refrigerated centrifuge and set the temperature to 4° C. Take out enzyme conjugate, diluent buffer, Calibrator 0 and stripes needed (for example, two stripes for 8 samples to be run in duplicate) from Mercodia ELISA kit box (store at 4° C.) and warm up them to RT. • xi. […] Centrifuge the tubes at 600 g for 5 min. • xiii. Take out 500 ul in fresh properly labelled precooled tubes. • xiv. Now dilute the samples 1:30 in calibrator 0 i.e. add 3 ul of each sample to 87 ul of Calibrator 0 in 8 different properly labelled 0.5 ml tubes. Mix them well. • xv. Prepare 1× enzyme conjugate buffer, i.e. mix 180 ul enzyme (11×) with 1800 ul diluent buffer for ELISA of two stripes. • xvi. Add 10 ul of each sample (diluted, in duplicate) in the two adjacent wells. Be careful not to touch the bottom. • xvii. Carefully add 100 ul of Enzyme Conjugate buffer (1×) to each well and incubate on a plate shaker (eppendorf MixMate) at 800 rpm for 2 hours at 25° C. • xviii. 45 min before the incubation is over take out wash buffer, substrate TMB and Stop solution. Keep them at RT. • xix. 5 min before the incubation is over prepare 1× wash buffer (21×), i.e. 40 ml distilled water+2 ml (21×) wash buffer in a reservoir. • xx. After the incubation is over, wash each well 7 times with 350 ul wash buffer. Use a multichannel (175 ul). • xxi. After the washing add 200 uL substrate TMB solution in each well. Maintain a proper pace. • xxii. Allow to incubate for 15 min. Set the program on the plate reader, to take absorbance read at 450 nm. Add a 5 sec shake step to allow proper mixing. • xxiii. After incubation immediately add 50 ul Stop solution in each well at same pace and take absorbance read at 450 nm.
# Assay conditions were kept same in all the assays. The difference in absorption-value for control experiment (no treatment with molecule) over different days is attributed to cell culture conditions. Other varying conditions are specified in the respective graphs.
# [Note: If not mentioned specifically, HG=High Glucose (16.7 mM), LG=Low Glucose (3.3 mM)]
# [2] = tested on: C57BL/6J mice; assay: Oral glucose tolerance test, glucose reduction in non-diabetic C57BL/6J mice; type: in vivo; details: fasted male C57BL/6J mice, oral dose with 3 g/kg glucose, 0-120 minutes
# Protocol: 12-13 weeks male C57BL/6J mice were fasted overnight. In the morning animals were orally dosed with different concentrations of NDS100179 or control vehicle along with 3 g/kg of glucose. Blood glucose was measured just before the dose and then 30, 60 90 and 120 minutes after the compound dose.
# [3] = tested on: C57BL/6J mice; assay: Insulin increase / GSIS in C57BL/6J mice; type: in vivo
# Protocol: Insulin at 0 and 15 minutes time points was also measured in the studies conducted above where 12-13 weeks male C57BL/6J mice were fasted overnight and in the morning orally dosed with different concentrations of NDS100179 or control vehicle along with 3 g/kg of glucose.
# (§1) NDS100179 induced insulin measurements at low and high glucose condition were carried out in Human Islets, Mice and MIN6 cells.
# [4] = tested on: Human Islets; assay: GSIS enhancement in human islets; type: cell-based; details: low and high glucose
# Protocol: as §1
# [5] = tested on: db/db mice; assay: 30 day oral treatment of db/db mice (fasted glucose, OGTT, beta-cell function, triglyceride, body weight); type: in vivo
# Protocol: db/db or leptin null mice are well accepted model of diabetes. 7 week old db/db mice were dosed orally with 10 mg/kg, 30 mg/kg of NDS100179 and vehicle alone for 30 days. Fasted plasma glucose levels in the animals were measured before the start of the study, at day 15 and day 30.
# 7 week db/db mice were dosed orally with 10 mg/kg, 30 mg/kg of NDS100179 and vehicle alone for 30 days. Beta-cell functionality was assessed using HOMA-beta % calculations at the end of 30 days.
# 7 week db/db mice were dosed orally with 10 mg/kg, 30 mg/kg of NDS100179 and vehicle alone for 30 days. Triglyceride levels were measured at the end of 30 days.
# 7 week db/db mice were dosed orally with 10 mg/kg, 30 mg/kg of NDS100179 and vehicle alone for 30 days. Animal body weight was measured every third day.
# [6] = Pharmacokinetics in mice; type: in vivo
# Description: Based on the pharmacokinetics studies performed in Mice NDS100179 is 100% orally bioavailable compound (FIG. 9).
# [7] = Kinetic solubility; type: physicochemical
# [8] = molecular target: CYP3A4 (Homo sapiens, UniProt P08684); assay: CYP3A4 inhibition; type: in vitro ADME
# [9] = Metabolic study and intrinsic clearance in MLM; type: in vitro ADME
# [10] = Metabolic study in HLM; type: in vitro ADME
# [11] = tested on: HepG2 cells; assay: Glucose uptake (2-NBDG) in insulin resistant HepG2 cells; type: cell-based; details: 24 hours with drug, 2-NBDG 15 min
# Protocol: The assay was performed after making the HepG2 cells insulin resistant by culturing them in high glucose condition with respective drugs for 24 hours. The assay was performed after 24 hours by allowing the cells to starve for 2 hrs in serum free media (containing respective drug) followed by 30 min incubation in KRB buffer (with respective drugs) and lastly incubating with 2-NBDG (fluorescent glucose analgoue) for 15 min. The cells were thoroughly washed and lysed with 1% triton-X. The fluorescence reading was immediately taken at Ex:465 and […].
# [12] = oral 10 mg/kg, 30 mg/kg, end of 30 days
# Chain of CYP3A4 (P08684 whole entry): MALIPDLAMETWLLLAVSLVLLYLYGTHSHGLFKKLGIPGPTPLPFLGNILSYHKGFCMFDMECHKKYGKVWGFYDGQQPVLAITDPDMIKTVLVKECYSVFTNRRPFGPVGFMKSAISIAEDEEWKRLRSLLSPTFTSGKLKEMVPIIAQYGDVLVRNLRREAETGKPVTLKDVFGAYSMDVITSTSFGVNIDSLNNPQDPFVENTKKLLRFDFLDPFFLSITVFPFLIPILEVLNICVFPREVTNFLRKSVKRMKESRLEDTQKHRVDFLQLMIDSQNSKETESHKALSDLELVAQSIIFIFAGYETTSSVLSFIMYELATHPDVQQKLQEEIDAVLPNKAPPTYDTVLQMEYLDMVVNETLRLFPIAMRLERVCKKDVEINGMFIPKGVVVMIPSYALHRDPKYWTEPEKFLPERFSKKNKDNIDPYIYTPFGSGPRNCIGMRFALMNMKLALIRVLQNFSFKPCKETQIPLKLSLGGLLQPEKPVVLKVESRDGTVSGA
substance,measurement,setting,value
"5-Chloro-3-(4,5-dihydro-1H-imidazol-2-yl)-1-methyl-3a,7a-dihydro-1H-indazole [NDS100179]",insulin secretion from MIN6 cells in high glucose conditions,"[1]; 33 uM, 1 hour, high glucose (16.7 mM), three different days",significant increase in the insulin secretion
same,insulin secretion over control,"[1]; MIN6 cells, 10 nM",not found to be statistically significant
same,insulin secretion over control,"[1]; MIN6 cells, 50 nM",active insulinotrope
same,insulin secretion over control,"[1]; MIN6 cells, 100 nM",active insulinotrope
same,Insulin Secretion,"[1]; MIN6 cells, compound 0.1 μM",5.55 (1.0) ng/ml
same,Insulin Secretion,"[1]; MIN6 cells, compound 1.0 μM",10.27 (0.6) ng/ml
same,Insulin Secretion,"[1]; MIN6 cells, compound 10.0 μM",15.45 (1.2) ng/ml
same,glucose dependence of insulinotropic activity,"[1]; MIN6 cells, high glucose vs lower glucose conditions",glucose dependent
same,GSIS enhancement,"[1]; MIN6 cells, low and high glucose",enhance insulin secretion only at high glucose concentration
same,blood glucose (oral glucose tolerance test),[2],dose dependently reduce the blood glucose
same,GSIS enhancement,"[3]; Mice, low and high glucose",enhance insulin secretion only at high glucose concentration
same,insulin secretion in mice,"[3]; fasted male C57BL/6J mice, oral dose with 3 g/kg glucose, 0 and 15 minutes",blood plasma concentration glucose dependent
same,GSIS enhancement,[4],enhance insulin secretion only at high glucose concentration
same,glucose tolerance (OGTT),[5]; at the end of 30 days of oral treatment,significant improvement in glucose tolerance
same,fasted plasma glucose (basal glucose level),"[5]; oral 10 mg/kg and 30 mg/kg for 30 days, day 0, 15, 30",significant control in rise of basal glucose level
same,body weight,"[5]; oral 10 mg/kg, 30 mg/kg for 30 days, measured every third day",No significant change in body weight
same,beta-cell function (HOMA-beta %),[5]; [12],significant improvements in beta-cell functions
same,triglyceride levels,[5]; [12],significant reduction in triglyceride levels
same,rise in fasted blood glucose levels,[5]; oral 30 mg/kg for 30 days,no statistically significant rise
same,AUC(0-t),[6],837.113 ng·h/mL
same,AUC(inf),[6],854.231 ng·h/mL
same,AUC(inf)/AUC(0-t) %,[6],102.049%
same,Cmax,[6],631.1 ng/mL
same,Tmax,[6],15 min
same,oral bioavailability,[6],100%
same,t½,[6],102 min
same,solubility kinetic,[7],205.27 µM
same,CYP3A4 Inhibition,[8],No inhibition
same,Intrinsic Clearnace MLM,[9],63.7 μl/min/mg of protein
same,Metabolic Study MLM Mean % PCR*,[9],39.25%
same,Metabolic Study HLM Mean % PCR*,[10],80.11%
same,glucose uptake in HepG2 cells,[11],increase glucose uptake
